# Measurements reported in patent US10098842B2, “Method and a device for producing nanoparticles” (Nanoform Finland Oy, priority 2014, dated 2018).
# Assay: Drug release (dissolution) tests in phosphate buffer pH 7.2
# Type: physicochemical
# Settings: gelatin capsule, phosphate buffer pH 7.2, 37.0° C., 400 rpm
# Protocol: Drug release tests for piroxicam nanoparticles and bulk (reference) piroxicam were done to investigate the effect of particle size on the dissolution rate. The tests were conducted in glass vials under heating (37.0±0.5° C.) and stirring (400 rpm) (H+P Labortechnik AG, Multitherm, Germany). Samples were placed in a gelatin capsule and anchored with an iron wire to prevent the capsule from surfacing. The capsule was then placed in glass vials containing phosphate buffer (50 mL; pH 7.2). Aliquots (1 mL) were taken at the time points ranging from 1 min to 48 hours. Drug release tests were conducted in triplicate. Samples were analyzed with high performance liquid chromatography (HPLC Thermo System Products, Agilent 1200 Infinity Series, Agilent Technologies, Germany) using a Discovery® C18 (Supelco Analytical, U.S.) column with guard column and a flow rate of 1 mL/min. The mobile phase was 60:40 (v/v) acetonitrile and 0.05% trifluoroacetic acid. The UV detection of piroxicam was set to 333 nm with a retention time of 2.9 min and total run time of 4 min at 30° C. A standard curve for […] quantification was made from piroxicam concentrations of 0.1-25 μg/mL (R^2=0.999).
smiles,measurement,value
"CN1C(C(=O)Nc2ccccn2)=C(O)c2ccccc2S1(=O)=O [bulk piroxicam, 4-hydroxy-2-methyl-N-(2-pyridinyl)-2H-1,2-benzothiazine-3-carboxamide 1,1-dioxide]",dissolution rate compared with the literature (Lai et al. 2011),agreed and exceeded that reported in the literature
